Assay results: ChEMBL document CHEMBL1150017, “A convenient synthesis of sulfated and sialyl oligosaccharides as potential ligands for CD22 adhesion protein” (Bioorg Med Chem Lett, 1995)
Calls of active or inactive are those of the source. No cut-off for these calls is given here.

Key:
[1] = target: B-cell receptor CD22 (Homo sapiens) (UniProt P20273); assay: Binding affinity against CD22 adhesion protein; no effect
[2] = target: B-cell receptor CD22 (Homo sapiens) (UniProt P20273); assay: Binding affinity against CD22 adhesion protein;no effect
[3] = target: B-cell receptor CD22 (Homo sapiens) (UniProt P20273); assay: Binding affinity against CD22 adhesion protein in ELISA competition assay;no effect

Sequence of B-cell receptor CD22 (Homo sapiens) (P20273 whole entry): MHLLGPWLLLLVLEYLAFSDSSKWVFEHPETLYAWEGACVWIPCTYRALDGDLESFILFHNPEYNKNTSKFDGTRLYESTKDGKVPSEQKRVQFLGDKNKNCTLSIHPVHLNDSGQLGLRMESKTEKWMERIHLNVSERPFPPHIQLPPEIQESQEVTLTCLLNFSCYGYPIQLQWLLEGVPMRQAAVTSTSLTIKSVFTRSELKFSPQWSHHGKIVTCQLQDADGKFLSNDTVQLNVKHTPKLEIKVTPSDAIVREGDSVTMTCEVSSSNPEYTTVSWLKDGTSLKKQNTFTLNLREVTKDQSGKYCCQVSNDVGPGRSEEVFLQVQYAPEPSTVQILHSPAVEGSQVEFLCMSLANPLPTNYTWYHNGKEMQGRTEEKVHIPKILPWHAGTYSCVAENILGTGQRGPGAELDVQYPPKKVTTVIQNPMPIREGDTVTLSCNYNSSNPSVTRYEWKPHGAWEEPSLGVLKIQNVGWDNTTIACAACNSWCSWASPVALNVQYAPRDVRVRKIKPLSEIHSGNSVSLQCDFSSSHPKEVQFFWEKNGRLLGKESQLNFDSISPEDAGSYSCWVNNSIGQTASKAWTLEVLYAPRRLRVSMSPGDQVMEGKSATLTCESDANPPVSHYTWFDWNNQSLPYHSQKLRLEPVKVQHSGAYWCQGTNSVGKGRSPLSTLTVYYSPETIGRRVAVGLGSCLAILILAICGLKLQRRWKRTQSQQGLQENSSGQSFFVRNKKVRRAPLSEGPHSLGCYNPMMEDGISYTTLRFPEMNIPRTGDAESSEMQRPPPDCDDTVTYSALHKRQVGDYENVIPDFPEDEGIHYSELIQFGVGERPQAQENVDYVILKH

Compound | Activity [2] | other results
O=C(CBr)OCC1OC(Br)C(OC(=O)c2ccccc2)C(OC(=O)c2ccccc2)C1OC(=O)c1ccccc1 (stereo not drawn) | – | Activity [1]: inactive
CC(=O)N[C@@H]1[C@@H](O)C[C@](OC[C@H]2O[C@H](Oc3ccccc3[N+](=O)[O-])[C@H](NC(C)=O)[C@@H](O[C@@H]3O[C@H](COS(=O)(=O)O)[C@H](O)[C@H](O)[C@H]3O)[C@H]2O)(C(=O)O)O[C@H]1C(O)C(O)CO (stereo partly drawn) | inactive | –
CC(=O)OCC1OC(Br)C(OC(C)=O)C(OC(=O)CCl)C1OC(C)=O (stereo not drawn) | inactive | –
CC(=O)N[C@@H]1[C@@H](O)C[C@](OC[C@H]2O[C@@H](Oc3ccc([N+](=O)[O-])cc3)[C@H](NC(C)=O)[C@@H](O[C@@H]3O[C@H](CO)[C@H](O)[C@H](O)[C@H]3O)[C@@H]2O)(C(=O)O)O[C@H]1C(O)C(O)CO (stereo partly drawn) | – | Activity [3]: inactive
CC(=O)N[C@@H]1[C@@H](O)C[C@](OC[C@H]2O[C@@H](Oc3ccc([N+](=O)[O-])cc3)[C@H](NC(C)=O)[C@@H](O[C@@H]3O[C@H](COS(=O)(=O)O)[C@H](O)[C@H](O)[C@H]3O)[C@@H]2O)(C(=O)O)O[C@H]1C(O)C(O)CO (stereo partly drawn) | – | Activity [3]: inactive

More lines, main results first:

Activity [2] | Compound | other results
inactive | CC(=O)N[C@@H]1[C@@H](Oc2ccccc2[N+](=O)[O-])O[C@@H](CO)[C@H](O)[C@@H]1O[C@@H]1O[C@@H](COS(=O)(=O)O)[C@H](O)[C@H](O)[C@@H]1O | –
inactive | CC(=O)N[C@@H]1[C@@H](Oc2ccccc2[N+](=O)[O-])O[C@@H](COS(=O)(=O)O)[C@H](O)[C@@H]1O[C@@H]1O[C@@H](COS(=O)(=O)O)[C@H](O)[C@H](O)[C@@H]1O | –
inactive | CC(=O)N[C@@H]1[C@@H](Oc2ccccc2[N+](=O)[O-])O[C@@H](CO)[C@H](O)[C@@H]1O[C@@H]1O[C@@H](CO)[C@H](O)[C@H](OS(=O)(=O)O)[C@@H]1O | –
